Test results reported in PubChem BioAssay AID248 (DTP/NCI, 2004).
“And” between values parts separate entries of the source, which are not always exact repeats. Identical values can stand only once. Inconclusive results and toxic doses are left out. Cut-off read from the data, not from the text of the source: active = T/C of 150% or more; inactive = T/C below 125%.

Test system: L1210 leukemia ip in BDF1 mice, survival T/C
Assay: NCI In Vivo Anticancer Drug Screen. Data for tumor model L1210 Leukemia (intraperitoneal) in B6D2F1 (BDF1) mice
Conditions: endpoint: mean survival time, higher = longer survival
Outline: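 Survival endpoint. Drug-treated group vs vehicle group, expressed as T divided by C. Tumor passaged by transplantation.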

[1] = dose: 100.0 mg/kg/injection, schedule: Q01DX009 (ip), vehicle: Klucel (hydroxypropylcellulose) (HPC)
[2] = dose: 100.0 mg/kg/injection, schedule: Q04DX003 (ip), vehicle: Klucel (hydroxypropylcellulose) (HPC)
[3] = dose: 200.0 mg/kg/injection, schedule: Q01DX009 (ip), vehicle: Klucel (hydroxypropylcellulose) (HPC)
[4] = dose: 200.0 mg/kg/injection, schedule: Q04DX003 (ip), vehicle: Klucel (hydroxypropylcellulose) (HPC)
[5] = dose: 400.0 mg/kg/injection, schedule: Q01DX009 (ip), vehicle: Klucel (hydroxypropylcellulose) (HPC)
[6] = dose: 400.0 mg/kg/injection, schedule: Q04DX003 (ip), vehicle: Klucel (hydroxypropylcellulose) (HPC)
[7] = dose: 50.0 mg/kg/injection, schedule: Q01DX009 (ip), vehicle: saline
[8] = dose: 100.0 mg/kg/injection, schedule: Q01DX009 (ip), vehicle: saline
[9] = dose: 200.0 mg/kg/injection, schedule: Q01DX009 (ip), vehicle: saline
[10] = dose: 100.0 mg/kg/injection, schedule: Q01DX001 (ip), vehicle: saline
[11] = dose: 200.0 mg/kg/injection, schedule: Q01DX001 (ip), vehicle: saline
[12] = dose: 400.0 mg/kg/injection, schedule: Q01DX001 (ip), vehicle: saline
[13] = dose: 100.0 mg/kg/injection, schedule: Q04DX003 (ip), vehicle: saline with Tween-80
[14] = dose: 200.0 mg/kg/injection, schedule: Q04DX003 (ip), vehicle: saline with Tween-80
[15] = dose: 400.0 mg/kg/injection, schedule: Q04DX003 (ip), vehicle: saline with Tween-80
[16] = dose: 100.0 mg/kg/injection, schedule: Q01DX009 (ip), vehicle: saline with Tween-80
[17] = dose: 200.0 mg/kg/injection, schedule: Q01DX009 (ip), vehicle: saline with Tween-80
[18] = dose: 100.0 mg/kg/injection, schedule: Q01DX001 (ip), vehicle: carboxymethylcellulose (CMC)
[19] = dose: 200.0 mg/kg/injection, schedule: Q01DX001 (ip), vehicle: carboxymethylcellulose (CMC)
[20] = dose: 400.0 mg/kg/injection, schedule: Q01DX001 (ip), vehicle: carboxymethylcellulose (CMC)

Measured: T/C

CCOC(=O)/C(=N/N=C(N)N)c1c(C)[nH]c2ccccc12
inactive: dose: 15.0 mg/kg/injection, schedule: Q01DX Z (ip), vehicle: carboxymethylcellulose (CMC) 102 % of control | dose: 30.0 mg/kg/injection, schedule: Q01DX Z (ip), vehicle: carboxymethylcellulose (CMC) 100 % of control | dose: 60.0 mg/kg/injection, schedule: Q01DX Z (ip), vehicle: carboxymethylcellulose (CMC) 95 % of control and 100 % of control | dose: 120.0 mg/kg/injection, schedule: Q01DX Z (ip), vehicle: carboxymethylcellulose (CMC) 93 % of control and 100 % of control | dose: 240.0 mg/kg/injection, schedule: Q01DX Z (ip), vehicle: carboxymethylcellulose (CMC) 100 % of control | dose: 240.0 mg/kg/injection, schedule: Q01DX Z (sc), vehicle: carboxymethylcellulose (CMC) 112 % of control | dose: 480.0 mg/kg/injection, schedule: Q01DX Z (ip), vehicle: carboxymethylcellulose (CMC) 90 % of control | dose: 480.0 mg/kg/injection, schedule: Q01DX Z (sc), vehicle: carboxymethylcellulose (CMC) 114 % of control | dose: 960.0 mg/kg/injection, schedule: Q01DX Z (sc), vehicle: carboxymethylcellulose (CMC) 120 % of control | dose: 1920.0 mg/kg/injection, schedule: Q01DX Z (sc), vehicle: carboxymethylcellulose (CMC) 103 % of control

CCCCCCCCCCCCOc1ccc(Sc2ccc([N+](=O)[O-])cc2)cc1
inactive: dose: 100.0 mg/kg/injection, schedule: Q01DX001 (ip), vehicle: Klucel (hydroxypropylcellulose) (HPC) 95 % of control | dose: 200.0 mg/kg/injection, schedule: Q01DX001 (ip), vehicle: Klucel (hydroxypropylcellulose) (HPC) 87 % of control | dose: 400.0 mg/kg/injection, schedule: Q01DX001 (ip), vehicle: Klucel (hydroxypropylcellulose) (HPC) 90 % of control

C/C(=N/NC(N)=S)c1cccc(C(F)(F)F)c1
inactive: dose: 37.5 mg/kg/injection, schedule: Q01DX009 (ip), vehicle: Klucel (hydroxypropylcellulose) (HPC) 97 % of control | dose: 75.0 mg/kg/injection, schedule: Q01DX009 (ip), vehicle: Klucel (hydroxypropylcellulose) (HPC) 95 % of control

CSc1ccccc1C(=O)NNS(=O)(=O)c1ccc(C)cc1
inactive: [1] 101 % of control | [2] 95 % of control | [3] 103 % of control | [4] 97 % of control | [5] 95 % of control | [6] 97 % of control

CCCCCc1c2c(c(CCCCC)c3c1-c1cccc4cccc-3c14)-c1ccc(C)cc1C2
inactive: dose: 100.0 mg/kg/injection, schedule: Q01DX001 (ip), vehicle: saline with Tween-80 92 % of control | dose: 400.0 mg/kg/injection, schedule: Q01DX001 (ip), vehicle: saline with Tween-80 87 % of control

CCOC(CCc1cnc[nH]c1=O)OCC
inactive: dose: 100.0 mg/kg/injection, schedule: Q04DX003 (ip), vehicle: saline 106 % of control | dose: 200.0 mg/kg/injection, schedule: Q04DX003 (ip), vehicle: saline 97 % of control | dose: 400.0 mg/kg/injection, schedule: Q04DX003 (ip), vehicle: saline 93 % of control

Cc1ccc(CS)cc1
inactive: [1] 101 % of control | [2] 97 % of control | [3] 93 % of control | [4] 97 % of control | [6] 92 % of control

C1OCC2CCC(CC2)CO1
inactive: [7] 95 % of control | [8] 98 % of control | [9] 97 % of control

Cc1ccnc2c1ccc1ccccc12
inactive: [10] 100 % of control | [11] 98 % of control | [12] 93 % of control

COC(=O)CNC(=O)c1cccc([N+](=O)[O-])c1
inactive: [10] 96 % of control | [11] 94 % of control | [12] 97 % of control

CCCCNC(=O)C(C)S(=O)(=O)c1ccc(N)cc1 (stereo not given)
inactive: [13] 98 % of control | [14] 96 % of control | [15] 102 % of control

COC(=O)NC1CC/C=C\CCC1I (stereo not given)
inactive: dose: 200.0 mg/kg/injection, schedule: Q04DX002 (ip), vehicle: DMSO 102 % of control

OC1(c2ccccc2)CC2CCCCC2c2ccccc21 (stereo not given)
inactive: dose: 12.0 mg/kg/injection, schedule: Q01DX001 (ip), vehicle: saline 98 % of control | dose: 25.0 mg/kg/injection, schedule: Q01DX001 (ip), vehicle: saline 100 % of control | dose: 50.0 mg/kg/injection, schedule: Q01DX001 (ip), vehicle: saline 102 % of control

NC(Cn1ccc(=O)c(O)c1)C(=O)O (stereo not given)
inactive: [7] 105 % of control | dose: 75.0 mg/kg/injection, schedule: Q04DX003 (ip), vehicle: saline 103 % of control | [8] 102 % of control | [13] 95 % of control | dose: 111.0 mg/kg/injection, schedule: Q01DX Z (ip), vehicle: saline 92 % of control | dose: 150.0 mg/kg/injection, schedule: Q04DX003 (ip), vehicle: saline 92 % of control | dose: 178.0 mg/kg/injection, schedule: Q01DX Z (ip), vehicle: saline 95 % of control | [9] 102 % of control | [14] 94 % of control | dose: 267.0 mg/kg/injection, schedule: Q01DX Z (ip), vehicle: saline 108 % of control | dose: 300.0 mg/kg/injection, schedule: Q04DX003 (ip), vehicle: saline 90 % of control | dose: 400.0 mg/kg/injection, schedule: Q01DX Z (ip), vehicle: saline 93 % of control | [15] 100 % of control | dose: 800.0 mg/kg/injection, schedule: Q01DX009 (ip), vehicle: saline 111 % of control

O=S(=O)(OCC#CCOS(=O)(=O)c1ccc(Cl)c(Cl)c1)c1ccc(Cl)c(Cl)c1
inactive: dose: 12.5 mg/kg/injection, schedule: Q01DX009 (ip), vehicle: saline with Tween-80 90 % of control | dose: 25.0 mg/kg/injection, schedule: Q01DX009 (ip), vehicle: saline with Tween-80 90 % of control

Cc1ccc(-c2nc(C#N)c(C#N)nc2-c2ccc(C)cc2)cc1
inactive: [10] 98 % of control | [11] 101 % of control | [12] 101 % of control

C=C(C)C1CC(=O)C2(C)OC2C1 (stereo not given)
inactive: dose: 75.0 mg/kg/injection, schedule: Q01DX001 (ip), vehicle: other 102 % of control | dose: 150.0 mg/kg/injection, schedule: Q01DX001 (ip), vehicle: other 98 % of control | dose: 300.0 mg/kg/injection, schedule: Q01DX001 (ip), vehicle: other 94 % of control

O=c1[nH]c2ccncc2c(=O)n1O
inactive: [1] 94 % of control | [3] 104 % of control | [5] 94 % of control

C=CC[N+](C)([O-])c1ccc(C(=O)OC)cc1 (stereo not given)
inactive: [10] 107 % of control | [11] 102 % of control | [12] 96 % of control

Cc1cc(NC(=O)c2ccccc2)c(Cl)cc1N
inactive: dose: 50.0 mg/kg/injection, schedule: Q01DX009 (ip), vehicle: saline with Tween-80 105 % of control | dose: 50.0 mg/kg/injection, schedule: Q04DX003 (ip), vehicle: saline with Tween-80 94 % of control | [16] 98 % of control | [13] 98 % of control | [17] 93 % of control | [14] 93 % of control

NC(=S)N/N=C/c1ccc([N+](=O)[O-])s1 (tested in a mixture with another compound)
inactive: [18] 92 % of control | [19] 97 % of control | [20] 94 % of control

CC1(C)CC(=NNC(N)=S)CC(C)(C)N1O
inactive: dose: 25.0 mg/kg/injection, schedule: Q04DX002 (ip), vehicle: saline 102 % of control | dose: 50.0 mg/kg/injection, schedule: Q04DX002 (ip), vehicle: saline with Tween-80 93 % of control | dose: 50.0 mg/kg/injection, schedule: Q04DX002 (ip), vehicle: saline 94 % of control | dose: 100.0 mg/kg/injection, schedule: Q04DX002 (ip), vehicle: saline with Tween-80 101 % of control

Cc1ccc2c(ccc3ccc4ccccc4c32)c1
inactive: [2] 90 % of control | [4] 89 % of control | [6] 93 % of control

COC(=O)C(CCSC)NC(=O)C(NC(=O)c1cnc2ccccc2n1)C(C)C (stereo not given)
inactive: [18] 91 % of control | [19] 89 % of control | [20] 96 % of control

C=C(C)c1cc2ccccc2cc1O
inactive: [16] 98 % of control | [13] 90 % of control | [17] 100 % of control | [14] 94 % of control | dose: 400.0 mg/kg/injection, schedule: Q01DX009 (ip), vehicle: saline with Tween-80 98 % of control | [15] 92 % of control
